These are literature values, as cited in patent US8273880B2, “Pyrazole compounds with inhibitory activity against ROS kinase” (Korea Institute of Science and Technology, priority 2009, dated 2012).

For the data set, the target named is ROS kinase (Homo sapiens, UniProt P08922). Details: literature Reaction Biology Corporation. As to conditions: Data from Reaction Biology corporation (website); read-out: Inhibitory Activity against ROS (IC50); cited from earlier work.
ROS kinase, sequence (P08922 28-2347): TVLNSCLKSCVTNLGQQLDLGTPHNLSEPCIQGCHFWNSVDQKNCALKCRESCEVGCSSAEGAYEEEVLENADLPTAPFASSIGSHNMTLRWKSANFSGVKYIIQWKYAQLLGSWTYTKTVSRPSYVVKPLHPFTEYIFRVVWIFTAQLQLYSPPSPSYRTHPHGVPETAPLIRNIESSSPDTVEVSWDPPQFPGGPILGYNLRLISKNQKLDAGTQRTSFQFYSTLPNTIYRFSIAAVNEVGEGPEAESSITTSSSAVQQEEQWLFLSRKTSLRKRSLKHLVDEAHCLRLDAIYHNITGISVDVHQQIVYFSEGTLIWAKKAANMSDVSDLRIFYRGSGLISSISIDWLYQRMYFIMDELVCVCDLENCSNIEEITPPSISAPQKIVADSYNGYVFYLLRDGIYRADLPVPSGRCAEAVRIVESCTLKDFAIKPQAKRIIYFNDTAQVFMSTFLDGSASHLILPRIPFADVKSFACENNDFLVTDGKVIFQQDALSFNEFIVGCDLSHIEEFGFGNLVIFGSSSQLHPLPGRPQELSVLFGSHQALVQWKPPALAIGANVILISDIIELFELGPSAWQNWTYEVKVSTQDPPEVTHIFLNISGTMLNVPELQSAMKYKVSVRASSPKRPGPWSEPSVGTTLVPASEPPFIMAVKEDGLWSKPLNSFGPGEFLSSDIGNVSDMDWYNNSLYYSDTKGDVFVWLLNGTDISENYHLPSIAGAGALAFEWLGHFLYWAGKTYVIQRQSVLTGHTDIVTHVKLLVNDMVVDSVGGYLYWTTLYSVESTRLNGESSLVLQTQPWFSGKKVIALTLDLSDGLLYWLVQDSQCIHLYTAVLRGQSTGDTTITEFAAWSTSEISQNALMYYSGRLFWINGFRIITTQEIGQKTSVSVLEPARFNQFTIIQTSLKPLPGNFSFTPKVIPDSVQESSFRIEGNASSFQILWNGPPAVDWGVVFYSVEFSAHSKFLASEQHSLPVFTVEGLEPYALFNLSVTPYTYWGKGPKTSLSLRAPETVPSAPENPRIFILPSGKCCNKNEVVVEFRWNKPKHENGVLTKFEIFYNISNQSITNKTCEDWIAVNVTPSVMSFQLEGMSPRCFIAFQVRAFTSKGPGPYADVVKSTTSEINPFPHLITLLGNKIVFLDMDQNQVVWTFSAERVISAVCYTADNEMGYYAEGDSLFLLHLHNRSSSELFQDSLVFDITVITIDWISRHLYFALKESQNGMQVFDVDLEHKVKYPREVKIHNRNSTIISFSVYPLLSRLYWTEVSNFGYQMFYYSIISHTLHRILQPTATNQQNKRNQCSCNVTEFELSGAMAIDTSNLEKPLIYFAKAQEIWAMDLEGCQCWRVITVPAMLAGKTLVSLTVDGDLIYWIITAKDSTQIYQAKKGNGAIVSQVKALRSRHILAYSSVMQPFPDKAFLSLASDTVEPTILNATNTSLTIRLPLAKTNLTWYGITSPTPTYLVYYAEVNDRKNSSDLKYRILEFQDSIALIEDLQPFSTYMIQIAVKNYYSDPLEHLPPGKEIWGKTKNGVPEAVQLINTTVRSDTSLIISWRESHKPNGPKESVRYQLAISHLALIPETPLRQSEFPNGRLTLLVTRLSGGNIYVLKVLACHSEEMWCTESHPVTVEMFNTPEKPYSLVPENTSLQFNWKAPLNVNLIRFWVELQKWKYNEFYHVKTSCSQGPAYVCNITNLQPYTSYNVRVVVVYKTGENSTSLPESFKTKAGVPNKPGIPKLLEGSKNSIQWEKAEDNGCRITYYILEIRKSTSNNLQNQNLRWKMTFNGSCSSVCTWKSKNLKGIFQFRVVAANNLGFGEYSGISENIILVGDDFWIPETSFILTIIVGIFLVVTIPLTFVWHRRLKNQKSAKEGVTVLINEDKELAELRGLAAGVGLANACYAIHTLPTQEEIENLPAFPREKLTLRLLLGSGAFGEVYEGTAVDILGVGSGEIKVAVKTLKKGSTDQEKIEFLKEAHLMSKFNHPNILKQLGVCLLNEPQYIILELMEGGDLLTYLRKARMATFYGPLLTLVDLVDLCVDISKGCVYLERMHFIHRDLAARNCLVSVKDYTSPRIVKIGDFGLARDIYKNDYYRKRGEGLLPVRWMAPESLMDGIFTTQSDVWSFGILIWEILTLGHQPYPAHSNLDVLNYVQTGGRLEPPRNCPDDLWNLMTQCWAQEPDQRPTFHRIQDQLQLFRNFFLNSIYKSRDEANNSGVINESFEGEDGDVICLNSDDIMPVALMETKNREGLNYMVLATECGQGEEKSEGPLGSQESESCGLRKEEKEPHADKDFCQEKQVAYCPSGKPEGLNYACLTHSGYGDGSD

For the compound PDGFR I-III, the half-maximal inhibitory concentration (IC50) was 48 µM. In the case of `COc1cc2ncnc(Nc3cccc(Cl)c3)c2cc1OC` [AG1478], the IC50 is 13.6 µM.
